The source made the active and inactive calls. The calls are words filed in the database; no cut-off is given here.
Key:
[1] = Toxicity in nude Balb/c mouse xenografted with human A375 cells assessed as behavioral modification at 0.7 mg/kg/day, ip; assay type: organism-based; conditions: in vivo
[2] = Toxicity in nude Balb/c mouse xenografted with human A375 cells assessed as effect on body mass at 0.7 mg/kg/day, ip; assay type: organism-based; conditions: in vivo
[3] = Cytotoxicity against vemurafenib-resistant human A375 RIV cells assessed as cell viability at 1 uM after 48 hrs by trypan blue exclusion assay relative to control; assay type: functional; conditions: A-375, 48 h, read-out: Activity
[4] = Toxicity in nude Balb/c mouse xenografted with human A375 cells assessed as diet disturbance at 0.7 mg/kg/day, ip; assay type: organism-based; conditions: in vivo
[5] = system: A-375; assay: Induction of autophagy in human A375 cells xenografted in immuno-deficient nude Balb/c mouse assessed as increase in LC3-2 expression in tumor at 0.7 mg/kg/day, ip measured on day 31 post treatment by Western blot analysis; assay type: functional, organism-based
[6] = system: A-375; assay: Induction of autophagy in human A375 cells assessed as increase in LC3B-2 expression at 10 uM after 48 hrs in presence of LC3 siRNA by Western blot analysis; assay type: functional, cell-based
[7] = Cytotoxicity against human fibroblasts assessed as cell viability at 5 uM after 48 hrs by trypan blue exclusion assay relative to control; assay type: cell-based, Fibroblast; conditions: read-out: Activity
[8] = system: A-375; assay: Induction of autophagy in human A375 cells assessed as increase in LC3-1 to LC3-2 conversion at 10 uM after 24 hrs by Western blot analysis; assay type: functional, cell-based
[9] = Cytotoxicity against vemurafenib-resistant human A375 RIV cells assessed as cell viability at 5 uM after 48 hrs by trypan blue exclusion assay relative to control; assay type: functional; conditions: A-375, 48 h, read-out: Activity
[10] = system: A-375; assay: Induction of apoptosis in human A375 cells assessed as increase in cleaved PARP expression at 10 uM after 48 hrs in presence of pan-caspase inhibitor QVD by Western blot analysis; assay type: functional, cell-based
[11] = system: A-375; assay: Cytotoxicity against human A375 cells assessed as reduction in cell viability at 10 uM after 48 hrs in presence of pan-caspase inhibitor QVD/LC3 siRNA by trypan blue exclusion assay; assay type: functional, cell-based
[12] = Cytotoxicity against vemurafenib-resistant human A375 RIV cells assessed as reduction in cell viability after 48 hrs by trypan blue exclusion assay; assay type: functional, cell-based; conditions: A-375, 48 h
[13] = system: BXPC-3; assay: Cytotoxicity against gemcitabine-sensitive human BxPC3 cells assessed as cell viability at 10 uM after 48 hrs by trypan blue exclusion assay relative to control; assay type: functional; conditions: BXPC-3, 48 h, read-out: Activity
[14] = system: A-375; assay: Cytotoxicity against vemurafenib-sensitive human A375 cells assessed as cell viability at 5 uM after 48 hrs by trypan blue exclusion assay relative to control; assay type: functional; conditions: A-375, 48 h, read-out: Activity
[15] = system: BXPC-3; assay: Cytotoxicity against gemcitabine-sensitive human BxPC3 cells assessed as reduction in cell viability after 48 hrs by trypan blue exclusion assay; assay type: functional, cell-based; conditions: BXPC-3, 48 h
[16] = Cytotoxicity against vemurafenib-resistant human A375 R5C3 cells assessed as cell viability at 10 uM after 48 hrs by trypan blue exclusion assay relative to control; assay type: functional; conditions: A-375, 48 h, read-out: Activity
[17] = system: MIA PaCa-2; assay: Cytotoxicity against gemcitabine-resistant human MIAPaCa2 cells assessed as reduction in cell viability after 48 hrs by trypan blue exclusion assay; assay type: functional, cell-based; conditions: MIA PaCa-2, 48 h
[18] = Half life in mouse liver microsomes at 37 degC; assay type: ADME, Microsome
[19] = system: A-375; assay: Induction of apoptosis in human A375 cells assessed as cells with active caspase-3 at 10 uM after 48 hrs by flow cytometry (reference value: 4.16%); assay type: functional
[20] = Cytotoxicity against vemurafenib-resistant human A375 RIV cells assessed as cell viability at 10 uM after 48 hrs by trypan blue exclusion assay relative to control; assay type: functional; conditions: A-375, 48 h, read-out: Activity
[21] = Total clearance in mouse at 1 mg/kg, iv measured 2 hrs post dose; assay type: ADME, organism-based; conditions: in vivo
[22] = AUC (0 to 2 hrs) in mouse at 1 mg/kg, iv; assay type: ADME, organism-based; set-up: dose 1 mg/kg, time < 2 hr, route intravenous; conditions: in vivo
[23] = system: A-375; assay: Induction of apoptosis in human A375 cells xenografted in immuno-deficient nude Balb/c mouse assessed as increase in cleaved PARP expression in tumor at 0.7 mg/kg/day, ip measured on day 31 post treatment by Western blot analysis; assay type: functional, organism-based
[24] = system: K562; assay: Cytotoxicity against imatinib-resistant human K562 cells assessed as reduction in cell viability after 48 hrs by trypan blue exclusion assay; assay type: functional, cell-based; conditions: K562, 48 h
[25] = system: K562; assay: Cytotoxicity against imatinib-sensitive human K562 cells assessed as cell viability at 10 uM after 48 hrs by trypan blue exclusion assay relative to control; assay type: functional; conditions: K562, 48 h, read-out: Activity
[26] = system: A-375; assay: Cytotoxicity against vemurafenib-sensitive human A375 cells assessed as reduction in cell viability after 48 hrs by trypan blue exclusion assay; assay type: functional, cell-based; conditions: A-375, 48 h
[27] = system: K562; assay: Cytotoxicity against imatinib-sensitive human K562 cells assessed as reduction in cell viability after 48 hrs by trypan blue exclusion assay; assay type: functional, cell-based; conditions: K562, 48 h
[28] = Terminal half life in mouse at 1 mg/kg, iv; assay type: ADME, organism-based; conditions: in vivo, read-out: beta t1/2
[29] = system: A-375; assay: Inhibition of colony formation in human A375 cells at 10 uM after 10 days by crystal violet staining based assay relative to control; assay type: functional; conditions: A-375, 240 h
[30] = system: A-375; assay: Antitumor activity against human A375 cells xenografted in immuno-deficient nude Balb/c mouse assessed as tumor growth inhibition at 0.7 mg/kg/day, ip measured on day 31 post treatment; assay type: functional, organism-based
[31] = system: MIA PaCa-2; assay: Cytotoxicity against gemcitabine-resistant human MIAPaCa2 cells assessed as cell viability at 10 uM after 48 hrs by trypan blue exclusion assay relative to control; assay type: functional; conditions: MIA PaCa-2, 48 h, read-out: Activity
[32] = Volume of distribution in mouse at 1 mg/kg, iv measured 2 hrs post dose; assay type: ADME, organism-based; conditions: in vivo
[33] = Cytotoxicity against human fibroblasts assessed as cell viability at 10 uM after 48 hrs by trypan blue exclusion assay relative to control; assay type: cell-based, Fibroblast; conditions: read-out: Activity
[34] = Cytotoxicity against human keratinocytes assessed as cell viability at 5 uM after 48 hrs by trypan blue exclusion assay relative to control; assay type: cell-based, Keratinocyte; conditions: read-out: Activity
[35] = system: K562; assay: Cytotoxicity against imatinib-resistant human K562 cells assessed as cell viability at 10 uM after 48 hrs by trypan blue exclusion assay relative to control; assay type: functional; conditions: K562, 48 h, read-out: Activity
[36] = system: A-375; assay: Cytotoxicity against vemurafenib-sensitive human A375 cells assessed as cell viability at 10 uM after 48 hrs by trypan blue exclusion assay relative to control; assay type: functional; conditions: A-375, 48 h, read-out: Activity
[37] = system: A-375; assay: Induction of apoptosis in human A375 cells assessed as increase in cleaved PARP expression at 10 uM after 24 hrs by Western blot analysis; assay type: functional, cell-based
[38] = Cytotoxicity against vemurafenib-resistant human A375 R5C3 cells assessed as reduction in cell viability after 48 hrs by trypan blue exclusion assay; assay type: functional, cell-based; conditions: A-375, 48 h
[39] = system: A-375; assay: Inhibition of colony formation in human A375 cells assessed as induction of less dense colony level at 5 and 10 uM after 10 days by crystal violet staining based assay relative to control; assay type: functional, cell-based
[40] = system: A-375; assay: Inhibition of colony formation in human A375 cells after 10 days by crystal violet staining based assay; assay type: functional, cell-based
[41] = Toxicity in mouse assessed as behavioral modification at 1 mg/kg, iv; assay type: organism-based; conditions: in vivo
[42] = system: A-375; assay: Inhibition of colony formation in human A375 cells at 5 uM after 10 days by crystal violet staining based assay relative to control; assay type: functional; conditions: A-375, 240 h
[43] = Cytotoxicity against human keratinocytes assessed as cell viability at 10 uM after 48 hrs by trypan blue exclusion assay relative to control; assay type: cell-based, Keratinocyte; conditions: read-out: Activity
[44] = system: A-375; assay: Induction of autophagy in human A375 cells assessed as increase in LC3-2 expression at 10 uM after 12 hrs by Hoechst staining based immunofluorescence method; assay type: functional, cell-based
[45] = Cytotoxicity against vemurafenib-resistant human A375 R5C3 cells assessed as cell viability at 1 uM after 48 hrs by trypan blue exclusion assay relative to control; assay type: functional; conditions: A-375, 48 h, read-out: Activity

CCCCCCC#Cc1ccc(S(=O)(=O)Nc2cccc(-c3csc(NC(C)=O)n3)c2)cc1
Activity [1]: Non-Toxic | Activity [2]: Non-Toxic | viability at 1 µM [3]: 12% | Activity [4]: Non-Toxic | Activity [5]: Active | Activity [6]: inactive | viability at 48 h, 5 µM [7]: 91.5% | Activity [8]: Active | viability at 5 µM [9]: 0.3% | Activity [10]: inactive | Activity [11]: inactive | EC50 [12]: 480 nM | viability at 10 µM [13]: < 1% | viability at 5 µM [14]: < 1% | EC50 [15]: 380 nM | viability at 10 µM [16]: < 1% | EC50 [17]: 640 nM | half-life [18]: > 45 min | Activity [19]: 48 - 48.4% | viability at 10 µM [20]: < 1% | clearance [21]: 43 mL/min/kg | AUC(0-t) at 2 h [22]: 389 ng·h/mL | Activity [23]: Active | EC50 [24]: 1620 nM | viability at 10 µM [25]: 0.6% | EC50 [26]: 560 nM | EC50 [27]: 1420 nM | half-life [28]: 47 min | inhibition at 10 µM [29]: 94% | TGI [30]: Active | viability at 10 µM [31]: < 1% | Vd [32]: 2.91 L/kg | viability at 48 h, 10 µM [33]: 85.1% | viability at 48 h, 5 µM [34]: 91.2% | viability at 10 µM [35]: 3.4% | viability at 10 µM [36]: < 1% | Activity [37]: Active | EC50 [38]: 1320 nM | inhibition [39]: Active | inhibition [40]: Dose-dependent effect | Activity [41]: Non-Toxic | inhibition at 5 µM [42]: 77% | viability at 48 h, 10 µM [43]: 93.4% | Activity [44]: Active | viability at 1 µM [45]: 83%

Reference: ChEMBL document CHEMBL4428084, “Discovery and Optimization of N-(4-(3-Aminophenyl)thiazol-2-yl)acetamide as a Novel Scaffold Active against Sensitive and Resistant Cancer Cells” (J Med Chem, 2016)
